Results on 30 compounds are retold here after publication PMC7144022, “Quinolinecarboxamides Inhibit the Replication of the Bovine Viral Diarrhea Virus by Targeting a Hot Spot for the Inhibition of Pestivirus Replication in the RNA-Dependent RNA Polymerase” (Molecules, 2020).

Data set [1] can be described thus: Cytotoxicity assay, proliferation of exponentially growing MDBK cells (MTS/PMS). The note with it: bovine. In kind it is cell-based, bovine. Here is the method:
Assays were carried out, as described previously.

Data set [2] relates to BVDV NADL virus. Kind of data set: CPE-based antiviral assay, BVDV NADL in MDBK cells (MTS/PMS). The following applies: for pEC50: Bovine viral diarrhea virus isolates and strains, MDBK, 72 h; for S.I.: selectivity index, CC50 vs EC50; for fold increase: sheet CSFCII#, potency relative to TO502-2403 (EC50 0.2 µM).

Each structure is given as a SMILES string. pEC50: −log10 of the molar value.

In turn, `COc1ccc2nc(NC(=O)c3cc(-c4cccc(F)c4)nc4ccccc34)sc2c1` [CSFC-67, Fc1cccc(c1)c3nc2ccccc2c(c3)C(=O)Nc4nc5ccc(cc5s4)OC] registered a CC50 at 5 days in data set [1] above 100 µM. Further, in data set [2], the pEC50 is 6.05, the S.I. came to 111 and the fold increase is 0.22.

In data set [1], `COc1ccc2nc(NC(=O)c3cc(-c4ccc(F)cc4)nc4ccccc34)sc2c1` [CSFC-68, Fc1ccc(cc1)c3nc2ccccc2c(c3)C(=O)Nc4nc5ccc(cc5s4)OC] registered a CC50 at 5 days above 100 µM. Besides, in data set [2], the negative-log EC50 (pEC50) is 6.70, the S.I. was 500 and the fold increase is 1.00.

In data set [1], `O=C(Nc1ccn(-c2ccccc2)n1)c1cc(-c2cccc(F)c2)nc2ccccc12` [CSFC-69, Fc1cccc(c1)c3nc2ccccc2c(c3)C(=O)Nc4ccn(n4)c5ccccc5] showed a half-maximal cytotoxic concentration (CC50) at 5 days above 100 µM. For the same compound, in data set [2], the pEC50 is 7.00, the S.I. was 1000 and the fold increase is recorded as 2.00.

In turn, `O=C(Nc1ccn(-c2ccccc2)n1)c1cc(-c2ccc(F)cc2)nc2ccccc12` [CSFC-70, Fc1ccc(cc1)c3nc2ccccc2c(c3)C(=O)Nc4ccn(n4)c5ccccc5] gave a CC50 at 5 days in data set [1] above 100 µM. Further, in data set [2], the pEC50 is 7.00, the S.I. came out at 1000 and the fold increase was 2.00.

`Cc1cccc2sc(NC(=O)c3cc(-c4ccco4)nc4ccc(F)cc34)nc12` [CSFC-71, Fc1cc2c(cc1)nc(cc2C(=O)Nc3nc4c(C)cccc4s3)c5ccco5] came in with a CC50 at 5 days in data set [1] above 100 µM. In addition, in data set [2], the pEC50 was 7.00, the S.I. came to 1000 and the fold increase worked out at 2.00.

Turning to `Cc1ccc2nc(-c3ccco3)cc(C(=O)Nc3nc4c(C)cccc4s3)c2c1` [CSFC-72, Cc1cc2c(cc1)nc(cc2C(=O)Nc3nc4c(C)cccc4s3)c5ccco5], in data set [1], the 50% cytotoxic concentration (CC50) at 5 days is above 100 µM. Also, in data set [2], the negative-log EC50 (pEC50) is 5.06, the S.I. is listed as 11 and the fold increase was 0.023.

In data set [1], `COc1ccc2nc(NC(=O)c3cc(-c4ccco4)nc4ccc(C)cc34)sc2c1` [CSFC-73, O=C(c2cc(nc1ccc(cc12)C)c3ccco3)Nc4nc5ccc(cc5s4)OC] registered a CC50 at 5 days above 100 µM. Also, in data set [2], the negative logarithm of the EC50 (pEC50) is 4.94, the S.I. was 9 and the fold increase is listed as 0.0174.

In data set [1], `Cc1cccc2sc(NC(=O)c3cc(-c4ccco4)nc4ccc(CO)cc34)nc12` [CSFC-74, OCc1cc2c(cc1)nc(cc2C(=O)Nc1nc2c(C)cccc2s1)c1ccco1] returned a CC50 at 5 days above 100 µM. In data set [2], the negative-log EC50 (pEC50) was 4.00, the S.I. stood at 1 and the fold increase is on record as 0.002.

In data set [1], `Cc1cc(C)c2nc(-c3ccco3)cc(C(=O)Nc3nc4c(C)cccc4s3)c2c1` [CSFC-75, Cc5cc1c(nc(cc1C(=O)Nc2nc3c(C)cccc3s2)c4ccco4)c(C)c5] returned a CC50 at 5 days above 100 µM. In data set [2], the negative logarithm of the EC50 (pEC50) is 5.28, the S.I. is recorded as 19 and the fold increase was found to be 0.0377.

`O=C(Nc1ccn(-c2ccccc2)n1)c1cc(-c2ccccc2F)nc2ccccc12` [CSFC-76, Fc1ccccc1c3nc2ccccc2c(c3)C(=O)Nc4ccn(n4)c5ccccc5] came in with a cytotoxic concentration (CC50) at 5 days in data set [1] above 100 µM. In data set [2], the negative-log EC50 (pEC50) was 7.00, the S.I. came out at 1000 and the fold increase stood at 2.00.

For the compound `COc1ccc2nc(NC(=O)c3cc(-c4ccco4)nc4ccc(OC(F)(F)F)cc34)sc2c1` [CSFC-77, FC(F)(F)Oc1cc2c(cc1)nc(cc2C(=O)Nc3nc4ccc(cc4s3)OC)c5ccco5], the CC50 at 5 days in data set [1] was above 100 µM. Further, in data set [2], the pEC50 is 4.00, the S.I. was 1 and the fold increase came to 0.002.

For `Cc1cccc2sc(NC(=O)c3cc(-c4ccsc4)nc4ccccc34)nc12` [CSFC-78, Cc1cccc2sc(nc12)NC(=O)c4cc(nc3ccccc34)c5ccsc5], the CC50 at 5 days in data set [1] was above 100 µM. Also, in data set [2], the negative-log EC50 (pEC50) was 7.00, the S.I. was 1000 and the fold increase was 2.00.

As to `Cc1cccc2sc(NC(=O)c3cc(-c4ccco4)nc4ccc(C(F)(F)OF)cc34)nc12` [CSFC-79, FC(F)(OF)c1cc2c(cc1)nc(cc2C(=O)Nc1nc2c(C)cccc2s1)c1ccco1], the CC50 at 5 days in data set [1] was above 100 µM. In data set [2], the pEC50 is 5.60, the S.I. is 40 and the fold increase was 0.08.

`Cc1cccc2sc(NC(=O)c3cc(-c4ccco4)nc4c(F)cccc34)nc12` [CSFC-80, Fc5cccc1c5nc(cc1C(=O)Nc2nc3c(C)cccc3s2)c4ccco4] displayed a cytotoxic concentration (CC50) at 5 days in data set [1] above 100 µM. Further, in data set [2], the pEC50 was 6.05, the S.I. came out at 111 and the fold increase is 0.22.

As for `COc1ccc2nc(NC(=O)c3cc(-c4ccco4)nc4ccc(Cl)cc34)sc2c1` [CSFC-81, Clc1cc2c(cc1)nc(cc2C(=O)Nc3nc4ccc(cc4s3)OC)c5ccco5], in data set [1], the CC50 at 5 days was above 100 µM. Further, in data set [2], the pEC50 was 4.61, the S.I. was 4 and the fold increase was found to be 0.00816.

With `COc1ccc2nc(NC(=O)c3cc(-c4ccsc4)nc4ccccc34)sc2c1` [CSFC-82, O=C(c2cc(nc1ccccc12)c3ccsc3)Nc4nc5ccc(cc5s4)OC], the half-maximal cytotoxic concentration (CC50) at 5 days in data set [1] is above 100 µM. For the same compound, in data set [2], the negative logarithm of the EC50 (pEC50) is 6.70, the S.I. was determined as 500 and the fold increase is given as 1.00.

Turning to `COc1ccc2nc(NC(=O)c3cc(-c4ccco4)nc4c(F)cccc34)sc2c1` [CSFC-83, Fc5cccc1c5nc(cc1C(=O)Nc2nc3ccc(cc3s2)OC)c4ccco4], the 50% cytotoxic concentration (CC50) at 5 days in data set [1] was above 100 µM. In addition, in data set [2], the negative logarithm of the EC50 (pEC50) is 7.15, the S.I. is 1429 and the fold increase came to 2.86.

As for `Cc1cccc2sc(NC(=O)c3cc(-c4ccco4)nc4ccc(Cl)cc34)nc12` [CSFC-84, Clc1cc2c(cc1)nc(cc2C(=O)Nc3nc4c(C)cccc4s3)c5ccco5], in data set [1], the half-maximal cytotoxic concentration (CC50) at 5 days was above 100 µM. Moreover, in data set [2], the pEC50 is 4.94, the S.I. is given as 9 and the fold increase came to 0.0174.

In data set [1], `Cc1cccc2sc(NC(=O)c3cc(-c4cc(Cl)sc4Cl)nc4ccccc34)nc12` [CSFC-85, Clc1cc(c(Cl)s1)c3nc2ccccc2c(c3)C(=O)Nc4nc5c(C)cccc5s4] showed a CC50 at 5 days above 100 µM. Also, in data set [2], the negative logarithm of the EC50 (pEC50) is 6.52, the S.I. was 333 and the fold increase turned out to be 0.67.

Regarding `COc1ccc2nc(NC(=O)c3cc(-c4cc(C)oc4C)nc4ccccc34)sc2c1` [CSFC-86, O=C(c2cc(nc1ccccc12)c3cc(oc3C)C)Nc4nc5ccc(cc5s4)OC], the half-maximal cytotoxic concentration (CC50) at 5 days in data set [1] is above 100 µM. Also, in data set [2], the pEC50 was 6.52, the S.I. is 333 and the fold increase is given as 0.67.

Regarding `Cc1cccc2sc(NC(=O)c3cc(-c4cccn4C)nc4ccccc34)nc12` [CSFC-88, Cn1cccc1c3nc2ccccc2c(c3)C(=O)Nc4nc5c(C)cccc5s4], the CC50 at 5 days in data set [1] is above 100 µM. Also, in data set [2], the negative logarithm of the EC50 (pEC50) is 6.70, the S.I. is reported as 500 and the fold increase was found to be 1.00.

Consider `COc1cccc2sc(NC(=O)c3cc(-c4cccs4)nc4ccccc34)nc12` [CSFC-89, COc1cccc2sc(nc12)NC(=O)c4cc(nc3ccccc34)c5cccs5], for which, in data set [1], the 50% cytotoxic concentration (CC50) at 5 days was above 100 µM. Also, in data set [2], the pEC50 was 6.22, the S.I. is listed as 167 and the fold increase came out at 0.33.

In turn, `Cc1cccc2sc(NC(=O)c3cc(-c4cc5ccccc5o4)nc4ccccc34)nc12` [CSFC-90, Cc1cccc2sc(nc12)NC(=O)c4cc(nc3ccccc34)c5cc6ccccc6o5] gave a 50% cytotoxic concentration (CC50) at 5 days in data set [1] above 100 µM. Further, in data set [2], the negative-log EC50 (pEC50) was 5.52, the S.I. came out at 33 and the fold increase worked out at 0.07.

With `COc1ccc(-n2ccc(NC(=O)c3cc(-c4ccc(F)cc4)nc4ccccc34)n2)cc1` [CSFC-91, Fc1ccc(cc1)c3nc2ccccc2c(c3)C(=O)Nc4ccn(n4)c5ccc(OC)cc5], in data set [1], the CC50 at 5 days was above 100 µM. In data set [2], the pEC50 was 6.00, the S.I. is 100 and the fold increase was found to be 0.20.

Compound `O=C(Nc1ccn(-c2ccccc2)n1)c1cc(-c2cc3ccccc3o2)nc2ccccc12` [CSFC-92, O=C(Nc1ccn(n1)c2ccccc2)c3cc(nc4ccccc34)c5cc6ccccc6o5] had a CC50 at 5 days in data set [1] above 100 µM. In data set [2], the pEC50 is 6.52, the S.I. came out at 333 and the fold increase stood at 0.67.

`O=C(Nc1ccn(-c2ccccc2)n1)c1cc(-c2cccs2)nc2ccc(F)cc12` [CSFC-93, O=C(Nc1ccn(n1)c2ccccc2)c4cc(nc3ccc(F)cc34)c5cccs5] displayed a CC50 at 5 days in data set [1] above 100 µM. In data set [2], the negative logarithm of the EC50 (pEC50) is 7.22, the S.I. was 1667 and the fold increase stood at 3.33.

As for `O=C(Nc1nc2ccc(C(F)(F)F)cc2s1)c1cc(-c2ccccc2)nc2ccccc12` [CSFC-94, FC(F)(F)c1ccc2nc(sc2c1)NC(=O)c4cc(nc3ccccc34)c5ccccc5], the cytotoxic concentration (CC50) at 5 days in data set [1] is above 100 µM. Also, in data set [2], the pEC50 was 4.00, the S.I. is recorded as 1 and the fold increase is on record as 0.002.

Compound `Cc1cccc2sc(NC(=O)c3cc(-c4cccs4)nc4ccc(Br)cc34)nc12` [CSFC-95, Brc1cc2c(cc1)nc(cc2C(=O)Nc3nc4c(C)cccc4s3)c5cccs5] yielded a CC50 at 5 days in data set [1] above 100 µM. Moreover, in data set [2], the negative-log EC50 (pEC50) is 5.51, the S.I. is reported as 32 and the fold increase was 0.0645.

With `O=C(Nc1ccn(-c2ccccc2)n1)c1cc(-c2ccccn2)nc2ccccc12` [CSFC-96, O=C(c2cc(nc1ccccc12)c3ccccn3)Nc4ccn(n4)c5ccccc5], in data set [1], the cytotoxic concentration (CC50) at 5 days is above 100 µM. In addition, in data set [2], the negative-log EC50 (pEC50) is 6.70, the S.I. is 500 and the fold increase is on record as 1.00.

In data set [1], `O=C(Nc1ccn(-c2ccccc2)n1)c1cc(-c2cccs2)nc2ccc(I)cc12` [CSFC-97, O=C(Nc1ccn(n1)c2ccccc2)c4cc(nc3ccc(I)cc34)c5cccs5] displayed a cytotoxic concentration (CC50) at 5 days above 100 µM. Moreover, in data set [2], the negative logarithm of the EC50 (pEC50) was 5.39, the S.I. amounted to 24 and the fold increase turned out to be 0.05.
